Source: patent US4211773A, “5-Substituted 1-(2'-Deoxy-2'-substituted-β-D-arabinofuranosyl)pyrimidine nucleosides” (Sloan Kettering Institute for Cancer Research, priority 1978, dated 1980)
Values after ≈ are worked out from the molar mass of the structure shown. Where two headings read alike, the source gives them in different places.

Columns and labels:
[1] = system: herpes simplex virus (HSV); details: compared with corresponding deoxyuridine analogs; cited from earlier work
[2] = system: herpesvirus infected cells; details: cells in which deoxycytidine deaminase is present; cited from earlier work
HSV type 2 = details: cited from earlier work
HSV type 1 = details: cited from earlier work
equine herpesvirus = details: cited from earlier work
L51784 = assay: Cytotoxicity, inhibition of growth of L51784 cells in vitro; format: cell-based; details: 96 h, read-out: Cytoxicity ID50
Experimental: (§1) *****Concentration required for 50% inhibition of growth of cells in
(§2) vitro after 96 hrs. incubation at 37° C.

[3] = system: Herpes Simplex Virus--Type 1 (HSV-1) strain 2931; assay: Capacity to suppress HSV-1 replication in monolayers of Vero cells; format: cell-based; details: 24 hr, read-out: Anti-viral Activity (% reduction of HSV1 titer); for activity at 0.01 µg/mL: Human alphaherpesvirus 1, 0.01 μg/ml; for activity at 0.1 µg/mL: Human alphaherpesvirus 1, 0.1 μg/ml; for activity at 1 µg/mL: Human alphaherpesvirus 1, 1.0 μg/ml; for activity at 10 µg/mL: Human alphaherpesvirus 1, 10 μg/ml; for activity at 100 µg/mL: Human alphaherpesvirus 1, 100 μg/ml
Experimental: The capacity of 2'-fluoro-arabinosyl nucleosides (Formulas IV and V shown below) to suppress replication of Herpes Simplex virus-type 1 (HSV-1) in monolayers of Vero cells is shown in Table I.
Vero cell monolayers were infected with approximately 1 plaque forming unit (PFU) per cell of Herpes Simplex Virus--Type 1 (HSV-1) strain 2931 and incubated for 2 hr. Maintenance media containing the various concentrations of drugs were used to overlay the monolayers. Supernatant fluids were collected 24 hr. later and titered on Vero cell monolayers described in Lopez et al, Ann. N.Y. Acad. Sci., 284, 351 (1977). Percent inhibition over controls was calculated.

P815 = assay: Cytotoxicity, inhibition of growth of P815 cells in vitro; format: cell-based; details: Mus musculus, 96 hrs. incubation at 37° C., read-out: Cytoxicity ID50
Experimental: as §1, §2

Solubility in saline = format: physicochemical; details: read-out: readily soluble at concentrations of
Experimental: (§3) The effective doses for 1-(2-deoxy-2-fluoro-β-D-arabinofuranosyl)-5-iodocytosine are given below. 1-(2-deoxy-2-fluoro-β-D-arabinofuranosyl)-5-iodocytosine is diluted in physiological saline, filter sterilized, and inoculated. This compound is readily soluble at concentrations of 25 mg/ml in saline. In mouse studies, the drug is inoculated by the intraperitoneal route.

HSV-1 strain 2931 = assay: In vivo activity in A/J mice infected with HSV-1 strain 2931; details: for mice surviving the 21 day experiment: starting 24 hours after inoculation
Experimental: as §3
1-(2-deoxy-2-fluoro-β-D-arabinofuranosyl)-5-iodocytosine was also shown to be active in vivo. A/J mice were inoculated with approximately 50 LD50 of HSV-1 strain 2931 intraperitoneally and then treated with 1-(2-deoxy-2-fluoro-β-D-arabinofuranosyl)-5-iodocytosine starting 24 hours later. 1-(2-deoxy-2-fluoro-β-D-arabinofuranosyl)-5-iodocytosinewas given at 10 and 1 mg/kg/da for 5 days. Untreated mice died 8 days after inoculation. Five of 10 mice treated with 10 mg/kg/day survived the 21 day experiment. Two of 10 treated with 1 mg/kg/da survival the 21 day experiment and the remainder died an average of 10 days after inoculation.

[4] = system: Herpes Simplex Virus - type 1; assay: Inhibition of Herpes Simplex Virus type 1 replication (effective doses); format: cell-based; details: for EC50: read-out: ED50 (the source's name)
Experimental: (§4) Compounds of the invention show anti-viral and anti-tumor activity. 1-(2-Deoxy-2-fluoro-β-D-arabinofuranosyl)-5-iodocytosine inhibits Herpes Simplex Virus type 1 and type 2 replication. HFEM, Patton, 2931, and F-strain HSV-1 and 333 and G-strain HSV-2 are affected at concentrations of 1-(2-deoxy-2-fluoro-β-D-arabinofuranosyl)-5-iodocytosine 0.01 μM (approximately 0.004 μg/ml).
as §3

[5] = Toxicity to normal lymphoblastoid cells; format: cell-based; details: read-out: not toxic at concentrations of up to
Experimental: Since 1-(2-deoxy-2-fluoro-β-D-arabinofuranosyl)-5-iodocytosine was not toxic to normal lymphoblastoid cells at concentrations of up to 10 μM, the compound is believed to affect tumor cells at concentrations 1/100th those needed to suppress normal cell replication. Compounds of the invention can be used as a selective treatment for tumors expressing the fetal thymidine kinase which includes most tumors.

[6] = system: Herpes Simplex Virus - type 2; assay: Inhibition of Herpes Simplex Virus type 2 replication (effective doses); format: cell-based; details: for EC50: read-out: ED50 (the source's name)
Experimental: as §4, §3

[7] = system: Cytomegalovirus (CMV strain AD 169); assay: Effective dose against Cytomegalovirus strain AD-169; CMV plaque formation on WI-38 cells; format: cell-based; details: for minimal effective concentration: Human betaherpesvirus 5, CMV strain AD 169, WI-38 cells
Experimental: as §3

[8] = system: K 562 cells, a cell line of chronic myologenous leukemia cells; assay: Suppression of replication of K 562 cells in vitro; format: cell-based; details: Homo sapiens, K562, read-out: concentration found to suppress replication of K 562 cells
Experimental: Since 1-(2-deoxy-2-fluoro-β-D-arabinofuranosyl)-5-iodocytosine was active against a virus which uses fetal thymidine kinase and since many tumor cells express high concentrations of fetal thymidine kinase, it was tested as a selective anti-tumor agent.

[9] = system: thymidine kinase negative strain of HSV-1 (HSV-1 TK^-); assay: Activity against thymidine kinase negative HSV-1; format: cell-based; details: Human alphaherpesvirus 1, read-out: not affected at concentrations of up to
herpes infections = details: therapeutic trials in herpes infections; cited from earlier work
several DNA virus = details: cell culture; cited from earlier work
anti-viral = details: cited from earlier work

Compound | IC50 (L51784) | activity at 0.01 µg/mL [3] | activity at 0.1 µg/mL [3] | activity at 1 µg/mL [3] | activity at 10 µg/mL [3] | IC50 (P815) | also measured
Nc1nc(=O)n([C@H]2C[C@H](O)[C@@H](CO)O2)cc1Br [5-Bromo-2'-deoxycytidine] | – | – | – | – | – | – | inhibition of HSV replication [1]: as effectively as their corresponding deoxyuridine analogs
Cc1cn([C@@H]2O[C@H](CO)[C@@H](O)[C@@H]2O)c(=O)nc1N [5-Methyl-ara-C] | – | – | – | – | – | – | activity against herpesvirus infected cells [2]: active
Nc1nc(=O)n([C@H]2C[C@H](O)[C@@H](CO)O2)cc1I [5-iodo-2'-deoxycytidine] | – | – | – | – | – | – | inhibition of HSV replication [1]: as effectively as their corresponding deoxyuridine analogs
Cc1cn([C@@H]2O[C@H](CO)[C@@H](O)[C@@H]2O)c(=O)[nH]c1=O [Ara-T] | – | – | – | – | – | – | activity against HSV type 2 (HSV type 2): active; activity against HSV type 1 (HSV type 1): active; activity against equine herpesvirus (equine herpesvirus): active
Nc1ccn([C@@H]2O[C@H](CO)[C@@H](O)[C@@H]2F)c(=O)n1 [IVa, 1-(2-deoxy-2-fluoro-β-D-arabinofuranosyl)cytosine, reference compound] | 0.05 µg/mL (≈ 0.204 µM) | < 90% | 90 to 99% | 90 to 99% | 99.9 to 100% | 0.05 µg/mL (≈ 0.204 µM) | activity at 100 µg/mL [3]: 100%
Nc1nc(=O)n([C@@H]2O[C@H](CO)[C@@H](O)[C@@H]2F)cc1F [IVb, 1-(2-deoxy-2-fluoro-β-D-arabinofuranosyl)-5-fluorocytosine] | 0.5 µg/mL (≈ 1.9 µM) | < 90% | 90 to 99% | 99 to 99.9% | 99.9 to 100% | 0.4 µg/mL (≈ 1.52 µM) | –
Nc1nc(=O)n([C@@H]2O[C@H](CO)[C@@H](O)[C@@H]2F)cc1Cl [IVc, 1-(2-deoxy-2-fluoro-β-D-arabinofuranosyl)-5-chlorocytosine] | 1.4 µg/mL (≈ 5.01 µM) | < 90% | < 90% | < 90% | 99.9 to 100% | ~1 µg/mL (≈ 3.58 µM) | –
Nc1nc(=O)n([C@@H]2O[C@H](CO)[C@@H](O)[C@@H]2F)cc1Br [IVd, 1-(2-deoxy-2-fluoro-β-D-arabinofuranosyl)-5-bromocytosine] | ~10 µg/mL (≈ 30.9 µM) | < 90% | 90 to 99% | 99 to 99.9% | 100% | > 10 µg/mL | –
Nc1nc(=O)n([C@@H]2O[C@H](CO)[C@@H](O)[C@@H]2F)cc1I [IVe, 1-(2-deoxy-2-fluoro-β-D-arabinofuranosyl)-5-iodocytosine] | 48 µg/mL (≈ 129 µM) | 90 to 99% | 99 to 99.9% | 100% | 100% | 14 µg/mL (≈ 37.7 µM) | solubility (Solubility in saline): ≥ 25 mg/mL; average time of death after inoculation (non-surviving mice) (HSV-1 strain 2931; 1 mg/kg/da for 5 days, intraperitoneal, remainder of mice): 10 days; mice surviving the 21 day experiment (HSV-1 strain 2931; 1 mg/kg/da for 5 days, intraperitoneal): Two of 10; mice surviving the 21 day experiment (HSV-1 strain 2931; 10 mg/kg/day for 5 days, intraperitoneal): Five of 10; in vivo activity against HSV-1 (HSV-1 strain 2931; 10 and 1 mg/kg/da for 5 days): active in vivo against HSV-1; EC50 ([4]; Human alphaherpesvirus 1, HSV-1 strain 2931): 7 nM; EC50 ([4]; Human alphaherpesvirus 1, HSV-1 strain HFEM): < 10 nM; EC50 ([4]; Human alphaherpesvirus 1, HSV-1 strain McIntyre): < 10 nM; EC50 ([4]; Human alphaherpesvirus 1, HSV-1 strain Patton): 10 nM; minimal effective concentration ([4]; Human alphaherpesvirus 1, HFEM, Patton, 2931 and F-strain HSV-1, read-out: concentration at which HSV-1 strains are affected): 0.01 µM; MNTC [5]: > 10 µM; activity at 100 µg/mL [3]: 100%; EC50 ([6]; Human alphaherpesvirus 2, HSV-2 strain 333): 50 nM; EC50 ([6]; Human alphaherpesvirus 2, HSV-2 strain G): 10 nM; minimal effective concentration ([6]; Human alphaherpesvirus 2, 333 and G-strain HSV-2, read-out: concentration at which HSV-2 strains are affected): 0.01 µM; EC50 ([7]; Human betaherpesvirus 5, AD169, WI-38, CMV strain AD-169, read-out: ED50 (the source's name)): 1000 nM; minimal effective concentration ([7]; read-out: concentration found to reduce CMV plaque formation): 1 µM; minimal effective concentration ([7]; read-out: concentration found to reduce CMV plaque formation (mass units)): 0.4 µg/mL; minimal effective concentration [8]: 0.04 µg/mL; minimal effective concentration [9]: > 10 µM
O=c1ccn([C@@H]2O[C@H](CO)[C@@H](O)[C@@H]2F)c(=O)[nH]1 [Va] | > 10 µg/mL | < 90% | < 90% | 99 to 99.9% | 99 to 99.9% | > 10 µg/mL | –
O=c1[nH]c(=O)n([C@@H]2O[C@H](CO)[C@@H](O)[C@@H]2F)cc1F [Vb, 1-(2-deoxy-2-fluoro-β-D-arabinofuranosyl)-5-fluorouracil] | 1 µg/mL (≈ 3.79 µM) | < 90% | 99 to 99.9% | 100% | 100% | 0.7 µg/mL (≈ 2.65 µM) | –
O=c1[nH]c(=O)n([C@@H]2O[C@H](CO)[C@@H](O)[C@@H]2F)cc1Cl [Vc, 1-(2-deoxy-2-fluoro-β-D-arabinofuranosyl)-5-chlorouracil] | 1.4 µg/mL (≈ 4.99 µM) | < 90% | < 90% | < 90% | 100% | 3.4 µg/mL (≈ 12.1 µM) | –
O=c1[nH]c(=O)n([C@@H]2O[C@H](CO)[C@@H](O)[C@@H]2F)cc1Br [Vd, 1-(2-deoxy-2-fluoro-β-D-arabinofuranosyl)-5-bromouracil] | 0.9 µg/mL (≈ 2.77 µM) | < 90% | < 90% | 99 to 99.9% | 100% | 1.6 µg/mL (≈ 4.92 µM) | –
O=c1[nH]c(=O)n([C@@H]2O[C@H](CO)[C@@H](O)[C@@H]2F)cc1I [Ve, 1-(2-deoxy-2-fluoro-β-D-arabinofuranosyl)-5-iodouracil] | 0.9 µg/mL (≈ 2.42 µM) | < 90% | 90 to 99% | 99.9 to 100% | 100% | 0.8 µg/mL (≈ 2.15 µM) | –
Nc1ccn([C@@H]2O[C@H](CO)[C@@H](O)[C@@H]2O)c(=O)n1 [ara-C, 1-β-D-Arabinofuranosylcytosine] | – | – | – | – | – | – | therapeutic to toxic ratio (herpes infections): unity; inhibition of multiplication of several DNA virus (several DNA virus): inhibits the multiplication of several DNA virus in cell culture
O=c1ccn([C@@H]2O[C@H](CO)[C@@H](O)[C@@H]2O)c(=O)[nH]1 [ara-U, 1-β-D-arabinofuranosyluracil] | – | – | – | – | – | – | anti-viral activity (anti-viral): devoid of anti-viral or anti-cancer activity
